This is an account of results in ChEMBL document CHEMBL1201862, “PubChem BioAssay data set” (2004).

Test systems include BT-549; Hs-578T; T47D; KM-20L2; LXFL 529; XF498; DLD-1.
What all share (assay): NCI anticancer screen, dose series, 48 h

SMILES strings stand for the structures.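 Tested at 5 concentrations; 48 h exposure; 96-well plates; endpoints linearly interpolated, else capped at highest concentration. At the GI50, growth is halved.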 Active and inactive are the calls of the source. Cut-off read from the data, not from the text of the source: active = GI50 up to about 1.1 µM and inactive = higher.

Take `Cc1ccc(O)c(C2=CC(c3cccc(Cl)c3)SC(=N)N2)c1` (stereo not given): the GI50 in the assay with BT-549 is 31.6 µM (inactive); in the assay on Hs-578T, 19.9 µM (inactive); in the assay on T47D it was 23.8 µM (inactive).
For `COc1ccc(C(C)c2cc3c(cc2O)OCO3)cc1` (stereo not given), the GI50 in the assay with BT-549 is 16.7 µM (inactive); with Hs-578T, 20.5 µM (inactive); in the assay with T47D, 24.9 µM (inactive).
For the compound `COCN1C(=O)[C@@H]2CCCN2C(=O)c2cc([N+](=O)[O-])ccc21`, the GI50 with BT-549 is 62.5 µM (inactive); in the assay with Hs-578T, > 100 µM (inactive); in the assay on T47D, 45.7 µM (inactive).
For `CC12ON=C(c3ccccc3)N1C=CN1C(c3ccccc3)=NOC12` (stereo not given), the GI50 in the assay on BT-549 and with Hs-578T was > 100 µM (inactive) each time.
`CC(=O)O[C@@H]1C=C(C)[C@H](CBr)O[C@@]2(C)CC[C@H](Br)C(C)(C)[C@H]12`: the GI50 in the assay on BT-549 and in the assay on Hs-578T was > 100 µM (inactive) in each case.
As to `Cc1cc2c(cc1C)C(=O)C1(C2)Cc2cc3c(cc2C1=O)CCC3` (stereo not given), the GI50 with BT-549, in the assay with Hs-578T and in the assay on T47D was > 100 µM (inactive) each time.
As for `O=c1c2cc(Cl)ccc2[nH]c2cc(O)cc(O)c12`, the GI50 in the assay with BT-549, in the assay with Hs-578T and with T47D was > 10 µM (inactive) each time.
On to `CCCC(=O)n1[nH]c(=O)n(C(C)(C)C)c1=O`, for which the GI50 with BT-549, in the assay on Hs-578T and in the assay on T47D was > 100 µM (inactive) in each case.
With `CC1(C)CCCCC1/C=C/C(CC(O)(C(F)(F)F)C(F)(F)F)=N\Nc1ccc([N+](=O)[O-])cc1[N+](=O)[O-]` (stereo not given), the GI50 with BT-549 was 0.376 µM (active); in the assay with Hs-578T, 0.575 µM (active); with T47D, 0.365 µM (active).
For `O=C(/C=C/c1ccccc1)c1cc(C(=O)/C=C/c2ccccc2)c(O)cc1O`, the GI50 with BT-549 is > 100 µM (inactive); in the assay on Hs-578T, 26.4 µM (inactive).
On to `COC(=O)[C@]12CSCN1C(=O)C(C(C)=O)=NN2C(=O)[C@](OC)(c1ccccc1)C(F)(F)F`, for which the GI50 in the assay on KM-20L2, in the assay on LXFL 529 and in the assay on XF498 was > 100 µM (inactive) in each case.
For `COc1cc(N(C)C)ccc1C=c1c2ccccc2n2c1cc(-c1ccccc1)[n+]2C`, the values for the GI50 in the assay on BT-549 and with T47D were 0.34 µM (active) and 0.266 µM (active), respectively.
With `CC(=O)Oc1ccc(/C=C/C(=O)OCCOC(=O)/C=C/c2ccc(OC(C)=O)c(OC(C)=O)c2)cc1OC(C)=O`, the GI50 was 15.7 µM (inactive) with BT-549, 16.8 µM (inactive) in the assay on Hs-578T and 13 µM (inactive) with T47D.
With `CC#CC(O)(C(=O)OC1CC(C)N(C)C(C)(C)C1)C1CCCC1` (stereo not given), the GI50 in the assay on BT-549 and in the assay on T47D was > 100 µM (inactive) each time.
On to `O=C1c2ccccc2C(=O)N1n1c(Cc2ccc([N+](=O)[O-])cc2)n[nH]c1=O`, for which the GI50 in the assay on BT-549 was > 100 µM (inactive); in the assay with T47D, 23.3 µM (inactive).
`Cc1cc(S(=O)(=O)Nc2n[nH]c(-c3ccc(Cl)cn3)n2)c(S)cc1Cl`: the GI50 in the assay with BT-549 was 32.2 µM (inactive); in the assay on Hs-578T it was 27.9 µM (inactive); in the assay with T47D it was 31 µM (inactive).
Take `N#Cc1c(N)oc(-c2ccc([N+](=O)[O-])cc2)c1C#N`: the results for the GI50 in the assay with Hs-578T and with T47D were 25.6 µM (inactive) and 27.2 µM (inactive), respectively.
Consider `CCOP(=O)(C=C=C1CCC2[C@@H]3CCc4cc(OC)ccc4C3CC[C@]12C)OCC` (stereo not given in full), for which the GI50 with Hs-578T was 20.5 µM (inactive); in the assay with T47D, 6.22 µM (inactive).
Regarding `CCOP(=O)(CN1CCNCCNCC1)OCC`, the GI50 in the assay with BT-549, with Hs-578T and with T47D was > 100 µM (inactive) each time.
As to `CCCCCC1=CC(=O)C1(Cl)Cl`, the GI50 was 17.9 µM (inactive) in the assay on BT-549, 19 µM (inactive) in the assay on Hs-578T and 8.24 µM (inactive) in the assay with T47D.
For `CC[n+]1c(/C=C/c2cc(C(=O)OC)n3c2sc2ccccc23)sc2ccccc21`, the GI50 in the assay on KM-20L2 is 17.8 µM (inactive); in the assay on LXFL 529, 13.8 µM (inactive); in the assay on XF498, 13.3 µM (inactive).
`CC(C)SC(C)(NC(=O)C1C(C)(C)CCC1(C)C)C(=O)O` (stereo not given): the GI50 in the assay with Hs-578T and in the assay on T47D was > 100 µM (inactive) in each case.
Consider `CCC(=O)O[C@H]1CC[C@H]2[C@@H]3CCC4=C/C(=N/NC(=O)c5cccc6c(=O)c7ccccc7[nH]c56)CC[C@]4(C)[C@H]3CC[C@]12C`, for which the GI50 in the assay on BT-549, with Hs-578T and with T47D was > 25 µM (inactive) each time.
Regarding `Cc1cn(CCOCCOC(=O)NC(CCCNC(=N)N)C(=O)O)c(=O)[nH]c1=O` (stereo not given), the GI50 with BT-549, in the assay with Hs-578T and in the assay on T47D was > 100 µM (inactive) throughout.
As to `CCOC(=O)CNc1c(OCc2ccccc2)c(=O)c1=O`, the GI50 in the assay on BT-549, in the assay on Hs-578T and with T47D was > 100 µM (inactive) in each case.
With `COc1ccc2c(c1)c(CC(=O)O)c(C)n2C(=O)c1ccc(Cl)cc1`, the GI50 in the assay on Hs-578T was > 100 µM (inactive); in the assay on T47D, 52.6 µM (inactive).
`CCCCC1Cc2ccccc2-c2nc3ccccc3n21` (stereo not given): the GI50 with Hs-578T is 17.1 µM (inactive); with T47D, 7.06 µM (inactive).
With `O=CC1C[C@@H](N2C(=O)O[C@@H](c3ccccc3)[C@H]2c2ccccc2)[C@@H]1COCc1ccccc1` (stereo not given in full), the GI50 in the assay with BT-549 is 20.3 µM (inactive); with Hs-578T, 25.6 µM (inactive).
Regarding `O=C1OC(c2ccccc2)N/C1=C\c1ccc2c(c1)OCO2` (stereo not given), the figures for the GI50 in the assay on BT-549, in the assay with Hs-578T and in the assay on T47D were > 100 µM (inactive), 72.9 µM (inactive) and > 100 µM (inactive), respectively.
Take `COc1cccc(/C=N/[N+](C)(C)C)c1O`: the GI50 with BT-549, in the assay on Hs-578T and in the assay on T47D was > 10 µM (inactive) each time.
Consider `CC(=O)n1c2ccc(Br)cc2c2nc3ccccc3nc21`, for which, in the assay on BT-549, the GI50 was > 100 µM (inactive).
For the compound `Nc1nc(N)c2ncn(Cc3ccccc3CCl)c2n1`, the GI50 in the assay with BT-549, in the assay on Hs-578T and in the assay with T47D was > 100 µM (inactive) in each case.
As for `CCCC(CC)c1c(O)c(O)c(C(CC)CCC)c(C(CC)CCC)c1C(CC)CCC` (stereo not given), the GI50 in the assay with BT-549, with Hs-578T and in the assay on T47D was > 10 µM (inactive) each time.
As to `Cc1ccc(/N=N/C2S/C(=C(\C#N)c3nc4ccccc4[nH]3)N(c3ccccc3)C2=O)cc1` (stereo not given), the GI50 in the assay with DLD-1 is > 100 µM (inactive); in the assay with KM-20L2, > 100 µM (inactive); in the assay on LXFL 529 it was > 100 µM (inactive); in the assay with XF498 it was 30 µM (inactive).
As for `C/C(=N\Nc1nc2ccccc2n1C)c1ccc2ccccc2n1`, the GI50 with BT-549 was > 22.3 µM (inactive); with Hs-578T it was 15.4 µM (inactive); in the assay with T47D, < 0.01 µM (active).
With `CCCCc1ccc2[n+](c1)C(C(=O)OCC)=PC2` (stereo not given), the GI50 is > 100 µM (inactive) in the assay with BT-549 and 66.7 µM (inactive) in the assay on Hs-578T.
As to `O=C(NNS(=O)(=O)c1ccccc1)c1csc(NC(=S)NC2CCCCC2)n1`, the GI50 was 25.4 µM (inactive) with BT-549 and 18.7 µM (inactive) in the assay with T47D.
For `COc1cc(Br)cc2cc(C3=CSC4=NCCN34)c(=O)oc12`, the GI50 is 22 µM (inactive) in the assay with BT-549 and 17.5 µM (inactive) in the assay on T47D.
As for `CCc1c2c(cc3c1CC1(C3)Cc3cc4c(c(C(=O)OC)c3C1)CCCC4)CCCC2` (stereo not given), the GI50 with Hs-578T is 19.2 µM (inactive); in the assay with T47D, > 100 µM (inactive).
`COc1cc(/C=C2\N=C(c3ccccc3)N(c3ccc(C(=O)c4ccccc4)cc3N3C(=O)/C(=C/c4ccc(O)c(OC)c4)N=C3c3ccccc3)C2=O)ccc1O`: the GI50 was 18.7 µM (inactive) in the assay with BT-549, 10.1 µM (inactive) in the assay on Hs-578T and 5.18 µM (inactive) in the assay with T47D.
As to `N=C(N)Nc1ccc(-c2ccc(NC(=N)N)cc2)cc1`, the results for the GI50 in the assay on BT-549, with Hs-578T and in the assay on T47D were 45.8 µM (inactive), 19.4 µM (inactive) and 44.4 µM (inactive), respectively.
Regarding `CN(C)c1ccc(/C=N/C23CC4CC(CC(C4)C2)C3)cc1`, in the assay on KM-20L2, the GI50 was > 100 µM (inactive).
With `Cc1cn(C2OC(CO[Si](C)(C)C(C)(C)C)C(N(C)O[Si](C)(C)C(C)(C)C)C2[Se]c2ccccc2)c(=O)[nH]c1=O` (stereo not given), the GI50 in the assay with Hs-578T is 2.67 µM (inactive).
With `Cc1cc(C)c(N[S+]([O-])c2ccc(Cl)cc2)c(C)c1` (stereo not given), the GI50 in the assay with BT-549 and with T47D was > 100 µM (inactive) in each case.
With `O=C(/C=C/c1c[nH]c2ccccc12)c1ccccc1O`, the GI50 with BT-549 was 12.4 µM (inactive); in the assay on Hs-578T, 22.6 µM (inactive); with T47D, 1.75 µM (inactive).
With `CN1C(c2ccccc2)CC(O)CC1c1ccccc1` (stereo not given), the GI50 in the assay on DLD-1, with KM-20L2 and in the assay with LXFL 529 was > 100 µM (inactive) each time.
Regarding `COc1ccc(NC(=O)CC(=O)NNC(Sc2ccccc2)c2cc(/N=N/c3ccc(Br)cc3)ccc2O)cc1` (stereo not given), the GI50 in the assay on BT-549, in the assay with Hs-578T and with T47D was > 10 µM (inactive) in each case.
Consider `Cc1cc2[nH]c3c(C#N)c(-c4ccccc4)c(/C=N/c4cccc(C(F)(F)F)c4)c(=O)n3c2cc1C`, for which the GI50 in the assay on BT-549 was 91.6 µM (inactive); in the assay on T47D it was 45 µM (inactive).
Regarding `c1cc(-c2cscc2-c2ccsc2)cs1`, the GI50 in the assay on BT-549 is 37.8 µM (inactive); in the assay with Hs-578T it was 17.4 µM (inactive); in the assay with T47D, 69.7 µM (inactive).
As for `O=[As](O)(O)c1ccc(Cc2ccc([As](=O)(O)O)cc2)cc1`, the results for the GI50 in the assay on BT-549, in the assay on Hs-578T and in the assay on T47D were 1.18 µM (inactive), 1.33 µM (inactive) and 0.312 µM (active), respectively.
Turning to `Cc1cc(C)c2c(=N)c3ccccc3n(CCCCCCO)c2n1`, the GI50 with BT-549 is 6.89 µM (inactive); in the assay on Hs-578T it was 3.03 µM (inactive); with T47D, 2.94 µM (inactive).
Regarding `CC(=O)O[C@H]1CCC2[C@@H]3CCC4NC(=O)C(C#N)C[C@]4(C)C3CC[C@@]21C` (stereo not given in full), the GI50 in the assay with BT-549 was > 10 µM (inactive); with Hs-578T it was 3.96 µM (inactive); in the assay with T47D, > 10 µM (inactive).
As to `O=c1cc(N2CCCC2)[nH]c(=O)n1Cc1ccccc1`, in the assay on BT-549, the GI50 was > 100 µM (inactive).
Regarding `O=C(COc1ccc(Cl)c(Cl)c1)Nc1ccc[n+](Cc2ccc(S(=O)(=O)F)c(Cl)c2)c1`, the GI50 in the assay with BT-549, with Hs-578T and in the assay on T47D was > 100 µM (inactive) in each case.
As for `Nc1ccc2nc(-c3cccc(Cl)c3)cc(O)c2c1`, the GI50 was 5.45 µM (inactive) with BT-549, 6.79 µM (inactive) with Hs-578T and 5.96 µM (inactive) with T47D.
